Common to all, as to format: biochemical
For test [1], the target named is T1, recombinant human PAI-1 (Homo sapiens, UniProt P05121).
T1 construct: purchased Molecular Innovations, Inc
Briefly: Test Example 2: human PAI-1 inhibitory activity (tPA fluorogenic substrate assay, pH7.4 HEPES buffer). The note with it: for inhibition at 3 µM: pH 7.4, read-out: Inhibition Rate of Human PAI-1 Activity (%); for IC50: pH7.4 HEPES buffer, obtained from Table 5 results. Here is the method:
(§1) Except using the pH7.4 HEPES buffer instead of pH7.5 Tris buffer, and the change of incubation time from 15 minutes to 10 minutes of the mixed solution added by two-chain tPA solution, tests were carried out similarly to the Test Example 1.
<Compotion of pH7.4 HEPES Buffer>
0.1% Polyethylene glycol 8,000 (Hampton Research Corporation)
2 mM Dimethyldecylphoshine oxide [Apo-10] (Fluka Corporation)

A further test has as its target T2, recombinant rat PAI-1 (Rattus norvegicus, UniProt P20961).
T2 construct: purchased Molecular Innovations, Inc
T2 sequence (P20961 24-402): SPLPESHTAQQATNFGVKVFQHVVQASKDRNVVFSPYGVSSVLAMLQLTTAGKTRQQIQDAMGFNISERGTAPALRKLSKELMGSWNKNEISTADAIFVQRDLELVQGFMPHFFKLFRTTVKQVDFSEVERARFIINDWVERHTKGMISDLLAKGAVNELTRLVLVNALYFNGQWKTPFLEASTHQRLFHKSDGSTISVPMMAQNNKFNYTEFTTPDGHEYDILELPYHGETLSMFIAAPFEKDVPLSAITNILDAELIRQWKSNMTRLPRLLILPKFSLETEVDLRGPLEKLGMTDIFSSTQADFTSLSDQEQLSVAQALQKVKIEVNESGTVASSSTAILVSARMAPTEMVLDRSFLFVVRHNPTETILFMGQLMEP
Briefly: Test Example 3: rat PAI-1 inhibitory activity (tPA fluorogenic substrate assay, pH7.4 HEPES buffer). The settings on record: for IC50: pH7.4 HEPES buffer, obtained from Table 7 results; for inhibition at 10 µM / inhibition at 3 µM: pH 7.4, read-out: Inhibition Rate of Rat PAI-1 Activity (%). Here is the method: as §1

For test [2], the target named is T1, recombinant human PAI-1. The test can be described thus: Test Example 4: human PAI-1 inhibitory activity (amount of PAI-1 bound to plate-coated tPA, ELISA). The note with it: PAI-1 50 ng/ml bound to coated tPA, read-out: Inhibition Rate of Human PAI-1 Activity (%); for inhibition at 0.1 µM: compound 0.1 μM. As to the method:
100 μl of tPA solution where one-chain recombinant tPA (hereinafter refereed to as tPA; American diagnostica, inc.) diluted with Buffer A to achieve a concentration of 10 μg/ml was added to each well of 96-well plate (Nunc Maxisorp), incubated for one night at […] to coated with tPA. Then, after suction of tPA solution from the 96-well plate, rinsed successively with Buffer A and Buffer B.
To Buffer B, solutions of the present application compound dissolved with DMSO (final DMSO concentration: 0.2%) and recombinant human PAI-1 (Molecular Innovations, Inc.) were added and blended so that the final concentrations would be 0.1 to 3.0 μM and 50 ng/ml respectively, and were incubated for 15 minutes on ice. These mixed solutions were added to rinsed 96-well plates at 100 μl/well, and incubated for 60 minutes at room temperature. To prepare calibration curve, PAI-1 solutions without the present application compound (solutions where the final concentrations being 100, 50, 25, 12.5, 6.25, 3.13, 1.56 ng/ml PAI-1) were added at 100 μl/well, and were incubated for 60 minutes at room temperature, as standard.
After incubation, the reaction mixture was suction removed, and rinsed each well with Wash Buffer. Next, anti-human PAI-1 monoclonal antibody (PROGEN Inc.) diluted with Buffer C to be 3.0 μg/ml was added to the 96-well plate at 100 μl/well, and incubated for 1 hour at room temperature. After rinsing each well with Wash Buffer, alkaline phosphatase-labeled goat anti-mouse IgG (H+L) (Jackson ImmunoResearch, Inc.) diluted with Buffer D to be 0.12 μg/ml was added at 100 μl/well, and incubated for 1 hour at room temperature. After rinsing each well with Wash Buffer, 1.0 mg/ml p-Nitrophenyl Phosphate (SIGMA) was added to the 96-well plate at 100 μl/well to start the reaction. After 30 to 60 minutes, 25 μl of 0.5 N NaOH was added to stop the reaction, and the absorbance was measured at 405 nm using a multiplate reader (GENios; TECAN G.M.B.H.).
Based on the calibration curve prepared from the standard wells, amounts of PAI-1 bound to tPA in the wells treated with the present application compound were calculated, and the PAI-1 inhibition rates by the present application compounds were obtained by the following equation. [PAI-1 Inhibition Rate (%)]=[1-(amount of PAI-1 bound to tPA on the well treated with the present application compound)/(amount of PAI-1 bound to tPA on the well treated with PAI-1 solution without present application compound (solution with the final concentration of 50 ng/ml PAI-1)]×100 <Composition of Buffer A> 0.1 M Tris-HCl-150 150 mM NaCl pH 7.7 <Composition of Buffer B> 50 mM sodium phosphate 0.1 M NaCl 1 mM EDTA pH 6.6 <Composition of Buffer C> 50 mM sodium phosphate 100 mM NaCl pH 7.4 <Composition of Buffer D> 0.01 M Tris-HCl 0.25 M NaCl pH 8.0 <Composition of Wash Buffer> 0.05% Tween 20 0.1% BSA in Buffer A <Composition of p-Nitrophenyl Phosphate Solution> 1 M Diethanolamine 0.5 mM MgCl2 p-Nitrophenyl phosphate pH 9.8
A general note: In an ELISA, binding on a coated surface is turned into a signal by an enzyme label.

This note sets out measurements from US7884234B2, “N-phenyloxamide derivatives” (Institute of Medicinal Molecular Design, inc., priority 2006, dated 2011).

The structures appear in SMILES notation.

T1 sequence (P05121 24-402): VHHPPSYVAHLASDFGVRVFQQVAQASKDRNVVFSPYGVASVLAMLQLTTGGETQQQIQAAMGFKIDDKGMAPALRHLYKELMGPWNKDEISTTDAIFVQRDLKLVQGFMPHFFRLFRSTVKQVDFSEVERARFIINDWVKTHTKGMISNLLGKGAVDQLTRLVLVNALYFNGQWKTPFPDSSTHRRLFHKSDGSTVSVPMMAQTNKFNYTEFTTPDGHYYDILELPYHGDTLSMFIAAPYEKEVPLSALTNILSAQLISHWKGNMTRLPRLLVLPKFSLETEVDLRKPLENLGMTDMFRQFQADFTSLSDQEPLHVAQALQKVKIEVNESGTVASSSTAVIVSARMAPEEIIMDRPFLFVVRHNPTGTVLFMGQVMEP

One may read the inhibition as the drop in the measured response relative to a control, in per cent. For orientation: IC50 means the point on the concentration scale where inhibition reaches its midpoint. Turning to `CCCOc1ccc(N(Cc2ccc(C(C)(C)C)cc2)C(=O)C(=O)O)c(-c2ccc(OC(F)(F)F)cc2)c1` [compound 78, N-[4-(tert-butyl)benzyl]-N-[5-propoxy-4′-(trifluoromethoxy)biphenyl-2-yl]oxamic Acid], at recombinant human PAI-1 [1], the inhibition at 3 µM was more than 99% and the IC50 was determined as 1080 nM. Moreover, on recombinant rat PAI-1, the IC50 was 1840 nM. For the same compound, the inhibition at 0.1 µM on recombinant human PAI-1 [2] came to 0%.

Turning to `COc1cc(OC)c(N(Cc2ccc(C(C)(C)C)cc2)C(=O)C(=O)O)cc1-c1ccc(OC(F)(F)F)cc1` [compound 70, N-[4-(tert-butyl)benzyl]-N-[2,4-dimethoxy-4′-(trifluoromethoxy)biphenyl-5-yl]oxamic Acid], at recombinant human PAI-1 [1], the IC50 turned out to be 1320 nM. In addition, on recombinant rat PAI-1, the inhibition at 10 µM is more than 99% and the IC50 was determined as 2300 nM. Besides, at recombinant human PAI-1 [2], the inhibition at 0.1 µM worked out at 0%. Also, at recombinant human PAI-1 [2] (compound 0.3 μM), the inhibition at 0.3 µM amounted to 0%.

Consider `CC(C)(C)c1ccc(CN(C(=O)C(=O)O)c2ccc(-c3ccc(OC(F)(F)F)cc3)cc2)cc1` [compound 8, N-[4-(tert-butyl)benzyl]-N-[4′-(trifluoromethoxy)biphenyl-4-yl]oxamic Acid], for which the IC50 on recombinant human PAI-1 [1] was found to be 1630 nM; on recombinant rat PAI-1 it was 3130 nM. Moreover, the inhibition at 0.1 µM on recombinant human PAI-1 [2] worked out at 0%.

Turning to `CC(C)(C)c1ccc(CN(C(=O)C(=O)O)c2cc(-c3ccc(OC(F)(F)F)cc3)cc(C(F)(F)F)c2)cc1` [compound 18, N-[4-(tert-butyl)benzyl]-N-[4′-(trifluoromethoxy)-5-(trifluoromethyl)biphenyl-3-yl]oxamic Acid], the IC50 on recombinant human PAI-1 [1] was 1250 nM; at recombinant rat PAI-1, 1610 nM. The inhibition at 0.1 µM on recombinant human PAI-1 [2] is 0%.

Turning to `CC(C)(C)c1ccc(CN(C(=O)C(=O)O)c2cccc(-c3ccc(OC(F)(F)F)cc3)c2)cc1` [compound 9, N-[4-(tert-butyl)benzyl]-N-[4′-(trifluoromethoxy)biphenyl-3-yl]oxamic Acid], the IC50 at recombinant human PAI-1 [1] was found to be 1710 nM; on recombinant rat PAI-1, 2760 nM. For the same compound, the inhibition at 10 µM on recombinant rat PAI-1 was more than 99%. For the same compound, at recombinant human PAI-1 [2], the inhibition at 0.1 µM was 0%.

`CCCCCOc1ccc(-c2ccc(OC(F)(F)F)cc2)cc1N(Cc1ccc(C(C)(C)C)cc1)C(=O)C(=O)O` [compound 74, N-[4-(tert-butyl)benzyl]-N-[4-pentyloxy-4′-(trifluoromethoxy)biphenyl-3-yl]oxamic acid]: the IC50 on recombinant human PAI-1 [1] came to 820 nM. Moreover, at recombinant rat PAI-1, the inhibition at 10 µM was more than 99% and the IC50 worked out at 1140 nM. Also, the inhibition at 0.1 µM on recombinant human PAI-1 [2] is 0%.

In the case of `CCC(CC)Oc1ccc(N(Cc2ccc(C(C)(C)C)cc2)C(=O)C(=O)O)cc1-c1ccc(OC(F)(F)F)cc1` [compound 77, N-[4-(tert-butyl)benzyl]-N-[2-(1-ethylpropoxy)-4′-(trifluoromethoxy)biphenyl-5-yl]oxamic Acid], on recombinant human PAI-1 [1], the inhibition at 3 µM is more than 99%. Besides, the values for the IC50 at recombinant human PAI-1 [1] and at recombinant rat PAI-1 were 1040 nM and 1420 nM, respectively. Besides, the inhibition at 0.1 µM at recombinant human PAI-1 [2] amounted to 12%.

As to `CCCOc1ccc(N(Cc2ccc(C(C)(C)C)cc2)C(=O)C(=O)O)cc1-c1ccc(OC(F)(F)F)cc1` [compound 65, N-[4-(tert-butyl)benzyl]-N-[2-propoxy-4′-(trifluoromethoxy)biphenyl-5-yl]oxamic Acid], on recombinant human PAI-1 [1], the inhibition at 3 µM was more than 99% and the IC50 turned out to be 1150 nM. Further, the IC50 on recombinant rat PAI-1 came to 1720 nM. Besides, the inhibition at 0.1 µM on recombinant human PAI-1 [2] was determined as 0%.

Turning to `CC(C)(C)c1ccc(CN(C(=O)C(=O)O)c2cc(C(F)(F)F)ccc2-c2ccc(OC(F)(F)F)cc2)cc1` [compound 48, N-[4-(tert-butyl)benzyl]-N-[4′-(trifluoromethoxy)-4-(trifluoromethyl)biphenyl-2-yl]oxamic Acid], the IC50 at recombinant human PAI-1 [1] was determined as 1140 nM; on recombinant rat PAI-1, 2450 nM. Further, the inhibition at 3 µM on recombinant rat PAI-1 was determined as 61%.

Take `CC(C)(C)c1ccc(CN(C(=O)C(=O)O)c2ccc(Cl)c(-c3ccc(OC(F)(F)F)cc3)c2)cc1` [compound 66, N-[4-(tert-butyl)benzyl]-N-[2-chloro-4′-(trifluoromethoxy)biphenyl-5-yl]oxamic Acid]: at recombinant human PAI-1 [1], the inhibition at 3 µM was more than 99% and the IC50 amounted to 1140 nM. Also, on recombinant rat PAI-1, the IC50 was 1550 nM. The inhibition at 0.1 µM on recombinant human PAI-1 [2] was determined as 6%.

`CCCCOc1ccc(-c2ccc(OC(F)(F)F)cc2)cc1N(Cc1ccc(C(C)(C)C)cc1)C(=O)C(=O)O` [compound 69, N-[4-(tert-butyl)benzyl]-N-[4-butoxy-4′-(trifluoromethoxy)biphenyl-3-yl]oxamic Acid]: the IC50 at recombinant human PAI-1 [1] turned out to be 880 nM. In addition, on recombinant rat PAI-1, the inhibition at 10 µM was more than 99% and the IC50 worked out at 1280 nM. Also, on recombinant human PAI-1 [2], the inhibition at 0.1 µM came to 0%.

On to `CCCCOc1ccc(N(Cc2ccc(C(C)(C)C)cc2)C(=O)C(=O)O)cc1-c1ccc(OC(F)(F)F)cc1` [compound 73, N-[4-(tert-butyl)benzyl]-N-[2-butoxy-4′-(trifluoromethoxy)biphenyl-5-yl]oxamic Acid], for which the inhibition at 3 µM at recombinant human PAI-1 [1] is more than 99%. Moreover, the IC50 on recombinant human PAI-1 [1] is 1130 nM; on recombinant rat PAI-1, 1820 nM.

Turning to `CC(C)(C)c1ccc(COc2ccc(-c3ccc(OC(F)(F)F)cc3)cc2N(Cc2ccccc2)C(=O)C(=O)O)cc1` [compound 59, N-benzyl-N-{4-[4-(tert-butyl)benzyloxy]-4′-(trifluoromethoxy)biphenyl-3-yl}oxamic Acid], at recombinant human PAI-1 [1], the inhibition at 3 µM is more than 99% and the IC50 was 660 nM. At recombinant rat PAI-1, the inhibition at 3 µM was more than 99%, the inhibition at 10 µM is more than 99% and the IC50 came to 1110 nM.

On to `CC(C)(C)c1ccc(CN(C(=O)C(=O)O)c2cccc(Oc3ccc(OC(F)(F)F)cc3)c2)cc1` [compound 52, N-[4-(tert-butyl)benzyl]-N-{3-[4-(trifluoromethoxy)phenoxy]phenyl}oxamic Acid], for which the IC50 on recombinant human PAI-1 [1] came out at 1840 nM; at recombinant rat PAI-1, 3040 nM.

Consider `CC(C)(C)c1ccc(CN(C(=O)C(=O)O)c2ccc(-c3ccc(OC(F)(F)F)cc3)cc2Cl)cc1` [compound 26, N-[4-(tert-butyl)benzyl]-N-[3-chloro-4′-(trifluoromethoxy)biphenyl-4-yl]oxamic Acid], for which the IC50 at recombinant human PAI-1 [1] was 1170 nM; at recombinant rat PAI-1, 2160 nM.

Turning to `CCCOc1ccc(-c2ccc(OC(F)(F)F)cc2)cc1N(Cc1ccc(C(C)(C)C)cc1)C(=O)C(=O)O` [compound 68, N-[4-(tert-butyl)benzyl]-N-[4-propoxy-4′-(trifluoromethoxy)biphenyl-3-yl]oxamic Acid], the IC50 was 1180 nM at recombinant human PAI-1 [1] and 1790 nM at recombinant rat PAI-1. The inhibition at 10 µM on recombinant rat PAI-1 is more than 99%.

For the compound `CC(C)(C)c1ccc(CN(C(=O)C(=O)O)c2ccc(Cl)cc2-c2ccc(OC(F)(F)F)cc2)cc1` [compound 72, N-[4-(tert-butyl)benzyl]-N-[5-chloro-4′-(trifluoromethoxy)biphenyl-2-yl]oxamic Acid], on recombinant human PAI-1 [1], the inhibition at 3 µM is more than 99% and the IC50 turned out to be 1060 nM. Further, the IC50 at recombinant rat PAI-1 came to 2140 nM.
